Reference: patent US20090291945A1, “CYSTEINE PROTEASE INHIBITORS” (Teijin Pharma Limited, priority 2008, published 2009)

Experiments:
[1] = Metabolic stability test using human liver microsome; assay type: in vitro ADME; settings: NADPH, 37° C., 25 minutes versus 0 minute, LC/MS peak area
Protocol: For the compounds synthesized according to the method of the above Examples and the compounds of formula (B) (the compounds disclosed in WO2002/070517), the metabolic stability test using the human liver microsome was performed and the residual rate of each compound was calculated.
To a human liver microsome solution (950 μL) was added a test compound solution (10 μL, 100 μM, acetonitrile solution) on an ice bath and the solution was divided into two equal parts, solution A and solution B. Note that the composition of the human liver microsome solution was as follows.
20 mg/mL protein human liver microsome (Xenotech LLC Lenexa, US): 10 μL 500 mM potassium phosphate buffer solution (pH 7.4): 200 μL 10 mM EDTA solution: 100 μL 60 mM MgCl2 solution: 50 μL 100 mM glucose-6-phosphate solution: 50 μL 100 I.U./mL glucose-6-phosphate dehydrogenase solution: 10 μL purified water: 530 μL
To the solution A (480 μL) was added acetonitrile (500 μL) on an ice bath, and then 25 mM NADPH solution (20 μL) was added. After vortexing, the mixture was centrifuged (3,000 rpm) at 4° C. for 10 minutes, and the supernatant was taken as the sample at the reaction time of 0 minute.
To the solution B (480 μL) was added 25 mM NADPH solution (20 μL). The mixture was incubated at 37° C. for 25 minutes. The reaction was quenched with acetonitrile (500 μL) and vortexing. The mixture was centrifuged (3,000 rpm) at 4° C. for 10 minutes, and the supernatant was taken as the sample at the reaction time of 25 minutes.
LC/MS measurement was performed for the samples at the reaction time of 0 minute and the reaction time of 25 minutes. Based on the peak area of the target molecular weight in the MS measurement, the residual rate of the sample at the reaction time of 25 minutes to the sample at the reaction time of 0 minute was calculated in percentage.

cathepsin K = molecular target: T1, cathepsin K (Homo sapiens, UniProt P43235); assay: Cathepsin K inhibitory activity (fluorescent substrate Z-Leu-Arg-MCA); assay type: biochemical; settings: enzyme expressed in HEK293T, 15 min preincubation, 30 min reaction at room temperature, pH 5.5; for IC50: read-out: Activity Intensity (cathepsin K inhibitory activity, pIC50 class) (converted)
T1 construct: the active enzyme was obtained as the enzyme fraction by using detergent containing lysis buffer; made in house; host or cells: HEK293T (GenHunter Corporation), transient expression; detergent lysate used as enzyme fraction
T1 sequence (P43235 115-329): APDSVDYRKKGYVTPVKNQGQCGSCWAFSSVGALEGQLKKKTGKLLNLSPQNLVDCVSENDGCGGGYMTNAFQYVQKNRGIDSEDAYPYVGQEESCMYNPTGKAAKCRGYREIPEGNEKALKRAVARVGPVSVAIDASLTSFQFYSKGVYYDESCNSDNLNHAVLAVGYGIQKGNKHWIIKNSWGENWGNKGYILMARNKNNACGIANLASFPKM
Procedure, shortened: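 Enzyme was HEK293T-expressed cathepsin K in pH 5.5 acetate buffer with 2 mM DTT, preincubated 15 min at room temperature with compound. Reaction started with Z-Leu-Arg-MCA (solution prepared at 10 μM), run 30 min, and AMC fluorescence read at 355/460 nm. IC50 taken from the curve of % inhibition vs DMSO.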

| Structure (SMILES) | Residual Rate at 25 minutes (%) [1] | IC50 (cathepsin K) | Activity Intensity (cathepsin K inhibitory activity, pIC50 class) (cathepsin K) |
| --- | --- | --- | --- |
| CC[C@@H](CNc1ccc(OC2(C(=O)O)CC2)cc1OC)NC(=O)[C@H](CC(C)C)N[C@@H](Cc1ccccc1)C(F)(F)F [Compound 124] | 87% | 3.16 to 31.6 nM | – |
| CC[C@@H](CNc1ccc(OCC(=O)O)cc1OC)NC(=O)[C@H](CC(C)C)N[C@@H](c1cccnc1)C(F)(F)F [Compound 121] | 105% | 3.16 to 31.6 nM | – |
| CC(C)C[C@H](N[C@@H](c1ccccc1)C(F)(F)F)C(=O)N[C@@H](CC#N)CNc1ccc(N2CCOCC2)cc1 [Compound 93] | 63% | 3.16 to 31.6 nM | – |
| CC[C@@H](CNc1ccc(OCC(=O)O)cc1OC)NC(=O)[C@H](CC(C)(C)F)N[C@@H](c1ccccc1)C(F)(F)F [Compound 117, 2-{4-[((2S)-2-{(2S)-2-[((1S)-2,2,2-trifluoro-1-phenylethyl)amino]-4-fluoro-4-methylpentanoylamino}butyl)amino]-3-methoxyphenoxy}acetic acid] | 111% | ≤ 3.16 nM | – |
| COc1ccc(NC[C@H](CCS(C)(=O)=O)NC(=O)[C@H](CC(C)C)N[C@@H](c2ccc(=O)[nH]c2)C(F)(F)F)c(OC)c1 [Compound 81] | 41% | 31.6 to 10000 nM | – |

Continued, values first:

| Residual Rate at 25 minutes (%) [1] | IC50 (cathepsin K) | Activity Intensity (cathepsin K inhibitory activity, pIC50 class) (cathepsin K) | Structure (SMILES) |
| --- | --- | --- | --- |
| 123% | 3.16 to 31.6 nM | – | CC[C@@H](CNc1ccc(OC(C)(C)C(=O)O)cc1OC)NC(=O)[C@H](CC(C)(C)F)N[C@@H](c1ccccc1)C(F)(F)F [Compound 131, 2-{4-[((2S)-2-{(2S)-2-[((1S)-2,2,2-trifluoro-1-phenylethyl)amino]-4-fluoro-4-methylpentanoylamino}butyl)amino]-3-methoxyphenoxy}-2-methylpropanoic acid] |
| 100% | ≤ 3.16 nM | – | CC(C)C[C@H](N[C@@H](c1ccccc1)C(F)(F)F)C(=O)N[C@@H](CCCC(=O)O)CNc1ccc(N2CCOCC2)cc1 [Compound 159, (5S)-5-{(2S)-2-[((1S)-2,2,2-trifluoro-1-phenylethyl)amino]-4-methylpentanoylamino}-6-[(4-morpholin-4-ylphenyl)amino]hexanoic acid] |
| 80% | ≤ 3.16 nM | – | CC[C@@H](CNc1ccc(N2CCC(C(=O)O)CC2)cc1)NC(=O)[C@H](CC(C)(C)F)N[C@@H](c1ccccc1)C(F)(F)F [Compound 147] |
| 74% | ≤ 3.16 nM | – | CC[C@@H](CNc1ccc(N2CCC(C)(C(=O)O)CC2)cc1)NC(=O)[C@H](CC(C)C)N[C@@H](c1ccccc1)C(F)(F)F [Compound 154] |
| 87% | ≤ 3.16 nM | – | CC[C@@H](CNc1ccc(N2CCC[C@@H](C(=O)O)C2)cc1)NC(=O)[C@H](CC(C)C)N[C@@H](c1ccccc1)C(F)(F)F [Compound 149] |
| 96% | – | ++ (7.5≦pIC50<8.5: ++) | CC[C@@H](CNc1ccc(OC(C)C(=O)O)cc1OC)NC(=O)[C@H](CC(C)(C)F)N[C@@H](c1ccccc1)C(F)(F)F (stereo partly shown) [Compound 142] |
